Source: PMC5047057 (Oral oncology, 2016)

Columns and labels:
[1] = tested on: patients with recurrent/metastatic head and neck squamous cell carcinoma (HNSCC)
[2] = tested on: patients with Rb-positive cancers; conditions: cited from earlier work
[3] = tested on: Rb-negative tumor xenografts; conditions: cited from earlier work
Rb-positive cell lines = conditions: cited from earlier work
clinical = experiment: clinical; parameters: species or system human; conditions: in vivo; for Tmax / AUC(0-t) / Cmax: human, po; for AUC(0-t): AUC0-24h
[4] = Palbociclib 125 mg (n=6 pts) with weekly cetuximab, all cycles

CC(=O)c1c(C)c2cnc(Nc3ccc(N4CCNCC4)cn3)nc2n(C2CCCC2)c1=O [palbociclib]
Acneiform Rash, Grade 3 (number of patients) [1, 4]: 0 | Acneiform Rash, Grades 1-2 (number of patients) [1, 4]: 5 | Anemia, Grade 3 (number of patients) [1, 4]: 0 | Anemia, Grades 1-2 (number of patients) [1, 4]: 6 | Diarrhea, Grade 3 (number of patients) [1, 4]: 0 | Diarrhea, Grades 1-2 (number of patients) [1, 4]: 1 | Fatigue, Grade 3 (number of patients) [1, 4]: 0 | Fatigue, Grades 1-2 (number of patients) [1, 4]: 3 | Hypomagnesemia, Grade 3 (number of patients) [1, 4]: 0 | Hypomagnesemia, Grades 1-2 (number of patients) [1, 4]: 2 | Infusion Reaction, Grade 3 (number of patients) [1, 4]: 0 | Infusion Reaction, Grades 1-2 (number of patients) [1, 4]: 1 | Nausea, Grade 3 (number of patients) [1, 4]: 0 | Nausea, Grades 1-2 (number of patients) [1, 4]: 2 | Neutropenia, Grade 3 (number of patients) [1, 4]: 2 | Neutropenia, Grades 1-2 (number of patients) [1, 4]: 2 | Thrombocytopenia, Grade 3 (number of patients) [1, 4]: 0 | Thrombocytopenia, Grades 1-2 (number of patients) [1, 4]: 3 | Vomiting, Grade 3 (number of patients) [1, 4]: 0 | Vomiting, Grades 1-2 (number of patients) [1, 4]: 1 | Palbociclib dose recommended for phase II trials ([1]; days 1-21 of a 28 day cycle with standard doses of weekly cetuximab): 125 mg/day | Intra-patient dose reductions ([1]; in vivo): did not occur | Most common AE ([1]; in vivo): Myelosuppression | Maximum tolerated dose (MTD) ([1]; palbociclib up to 125 mg/day days 1-21 of 28 with standard weekly cetuximab): not reached | Systemic exposure versus dose ([2]; dose range of 25-150 mg): dose proportionality | Maximum tolerated dose (MTD) ([2]; once daily, administered for 21 days of each 28 day cycle, monotherapy): 125 mg | Dose-limiting toxicity (DLT) ([2]; palbociclib monotherapy phase I trials): neutropenia | Activity in xenografts [3]: no activity | Anti-proliferative effects (Rb-positive cell lines): potent anti-proliferative effects | Tmax (clinical; 100 mg): 8 h | AUC(0-t) (clinical; 100 mg): 1.48 µg·h/mL | Cmax (clinical; 100 mg): 0.07 µg/mL | Tmax (clinical; 100 mg, Tmax): 8 h | AUC(0-t) (clinical; 125 mg): 2.23 µg·h/mL | Cmax (clinical; 125 mg): 0.145 µg/mL | Tmax (clinical; 125 mg, Tmax): 8 h | Dose-normalized Cmax and AUC0-24h, 100 vs 125 mg daily oral doses (clinical): comparable
